Assay results: patent US20050234041A1, “Substituted 1-benzazepines and derivatives thereof” (priority 2001, published 2005)
Converted amounts (≈) assume the structure as drawn. Read-outs that look alike come from different tables or passages of the source.

Assays:
[1] = system: Helicobacter pylori; experiment: MIC, broth dilution method, Helicobacter pylori; format: cell-based; settings: for MIC: Helicobacter pylori
Source text: (§1) Antibacterial activity can be determined by several standard methods well known by those skilled in the art, including disc diffusions methods, broth dilution minimal inhibitory concentration (MIC) methods, etc., including the detailed method outlined below and as defined by the National Committee of Clinical Laboratory Standards in the United States.
(§2) MIC, Broth Dilution Method
(§3) Cultures of bacteria are initially brought up from the freezer stocks onto chocolate agar plates by streaking a loop-full, then incubated for 18 hours at 35-37° C. in a 5% CO2 incubator.
(§4) Five to 10 colonies are picked from the chocolate agar plate for subculture to Brain-Heart Infusion (BHI) broth or Mueller Hinton broth or BHI containing 4% serum and incubated as described.
(§5) Evaluate the optical density of the organisms in the wells of a 96 well microtiter plate with and without the test compound. The optical density of the organisms in the presence of an active compound will be less than the optical density of the same organism untreated. The activity of the compounds is described as either negative or the lowest concentration inhibiting growth. The results are depicted in Table III, where +/− represents the least activity and ++++ represents the greatest activity. In Table IV, the results are depicted where MIC represents the lowest concentration of antibiotic that inhibits bacterial growth.

[2] = system: Campylobacter jejuni; experiment: MIC, broth dilution method, Campylobacter jejuni; format: cell-based; settings: for MIC: Campylobacter jejuni
Source text: as §1, §2, §3, §4, §5

[3] = Table V, read-out: MIC (μg/mL) H. pylori
[4] = Table V, read-out: MIC (μg/mL) C. jejuni
[5] = Table IV, MIC, lowest concentration that inhibits bacterial growth, read-out: Antibacterial Activity (micrograms/ml) Helicobacter pylori
[6] = Table IV, MIC, lowest concentration that inhibits bacterial growth, read-out: Antibacterial Activity (micrograms/ml) Campylobacter jejuni
[7] = Table IV, MIC, lowest concentration that inhibits bacterial growth

## COc1cc2c(cc1[N+](=O)[O-])CCC(C(=O)OC(C)(C)C)C(=O)N2C(=O)OC(C)(C)C (racemic) [Example 195, 1,3(R,S)-Di(tert-butoxycarbonyl)-8-methoxy-7-nitro-2,3,4,5-tetrahydro-1H-1-benzazepine-2-one]
other
  melting point: 142 to 144 °C (dec.)
[1]; [3]
  MIC: 4 µg/mL (≈ 9.16 µM)
[2]; [4]
  MIC: 60 µg/mL (≈ 137 µM)

## CCN1C(=O)CCCc2cc(Br)c(OC)cc21 [Example 9, 7-Bromo-1-ethyl-8-methoxy-2,3,4,5-tetrahydro-1H-1-benzazepine-2-one]
other
  melting point: 133 to 135 °C
[1]; [5]
  MIC: 100 µg/mL (≈ 335 µM)
[2]; [6]
  MIC: > 200 µg/mL

## CC(C)(C)OC(=O)C1CCc2ccc(O)cc2N(C(=O)OC(C)(C)C)C1=O (racemic) [Example 183, 1,3(R,S)-Di(tert-butoxycarbonyl)-8-hydroxy-2,3,4,5-tetrahydro-1H-1-benzazepine-2-one]
[1]; [3]
  MIC: 64 µg/mL (≈ 170 µM)
[2]; [4]
  MIC: 125 µg/mL (≈ 331 µM)

## CCN1C(=O)C(C(=O)OC(C)(C)C)CCc2cc(N3CCN(C(=O)OC(C)(C)C)CC3)c(OC)cc21 (racemic) [Example 14, 3(R,S)-tert-Butoxycarbonyl-7-[(4-tert-butoxycarbonyl-piperazin)-1-yl]-1-ethyl-8-methoxy-2,3,4,5-tetrahydro-1H-1-benzazepine-2-one]
[1]; [7]
  Antibacterial Activity (micrograms/ml) Helicobacter pylori: 50 micrograms/ml
[2]; [7]
  Antibacterial Activity (micrograms/ml) Campylobacter jejuni: >200 micrograms/ml

## COc1ccc2c(c1)CCCC(=O)N2 [Example 185, 7-Methoxy-2,3,4,5-tetrahydro-1H-1-benzazepine-2-one]
[1]; [3]
  MIC: 125 µg/mL (≈ 654 µM)
[2]; [4]
  MIC: 32 µg/mL (≈ 167 µM)

## CCN1C(=O)CCCc2ccc(OC)cc21 [Example 8, 1-Ethyl-8-methoxy-2,3,4,5-tetrahydro-1H-1-benzazepine-2-one]
[1]; [5]
  MIC: > 200 µg/mL
[2]; [6]
  MIC: 50 µg/mL (≈ 228 µM)

## O=C1CCCc2ccc([N+](=O)[O-])cc2N1 [Example 181, 8-Nitro-2,3,4,5-tetrahydro-1H-1-benzazepine-2-one]
[1]; [3]
  MIC: 250 µg/mL (≈ 1210 µM)
[2]; [4]
  MIC: 125 µg/mL (≈ 606 µM)

## COc1cc2c(cc1[N+](=O)[O-])CCC(C(=O)OC(C)(C)C)C(=O)N2CCOC1CCCCO1 [Example 224, 3(R,S)-tert-Butoxycarbonyl-8-methoxy-7-nitro-1-[2-(tetrahydro-2H-pyran-2-yloxy)]ethyl-2,3,4,5-tetrahydro-1H-1-benzazepine-2-one]
[1]; Table V
  MIC (μg/mL) H. pylori: 60 µg/mL (≈ 129 µM)
[2]; Table V
  MIC (μg/mL) C. jejuni: >250, μg/mL

## CCN1C(=O)C(CC)(C(=O)O)CCc2ccc(OC)cc21 (racemic) [Example 7, 3(R,S)-Carboxyl-1,3-diethyl-8-methoxy-2,3,4,5-tetrahydro-1H-1-benzazepine-2-one]
[1]; [5]
  MIC: 100 µg/mL (≈ 343 µM)
[2]; [6]
  MIC: > 200 µg/mL

## CCOC(=O)C1(CC)CCc2ccc(OC)cc2N(CC)C1=O (racemic) [Example 6, 1,3-Diethyl-3(R,S)-ethoxycarbonyl-8-methoxy-2,3,4,5-tetrahydro-1H-1-benzazepine-2-one]
[1]; [5]
  MIC: 12.5 µg/mL (≈ 39.1 µM)
[2]; [6]
  MIC: 50 µg/mL (≈ 157 µM)

## CCN1C(=O)C(C(=O)O)CCc2cc(N3CCN(c4cc5c(cc4OC)N(CC)C(=O)C(C(=O)O)CC5)CC3)c(OC)cc21 [Example 20, 1,4-Di-[(3(R,S)-carboxyl-1-ethyl-8-methoxy-2-oxo-2,3,4,5-tetrahydro-1H-1-benzazepine)-7-yl]-piperazine]
[1]; [7]
  Antibacterial Activity (micrograms/ml) Helicobacter pylori: 100 micrograms/ml
[2]; [7]
  Antibacterial Activity (micrograms/ml) Campylobacter jejuni: >200 micrograms/ml

## CCN1C(=O)CCCc2ccc([N+](=O)[O-])cc21 [Example 182, 8-Nitro-1-ethyl-2,3,4,5-tetrahydro-1H-1-benzazepine-2-one]
[1]; [3]
  MIC: 16 µg/mL (≈ 68.3 µM)
[2]; [4]
  MIC: 8 µg/mL (≈ 34.2 µM)

## COc1ccc2c(c1)N(CC(=O)OC(C)(C)C)C(=O)C(C(=O)OC(C)(C)C)CC2 (racemic) [Example 200, 1-(tert-Butoxycarbonyl)methyl-3(R,S)-tert-butoxycarbonyl-8-methoxy-2,3,4,5-tetrahydro-1H-1-benzazepine-2-one]
[1]; [3]
  MIC: 15 µg/mL (≈ 37 µM)
[2]; [4]
  MIC: > 250 µg/mL

## COc1ccc2c(c1)N(Cc1cccc(F)c1)C(=O)C(C(=O)OC(C)(C)C)CC2 (racemic) [Example 25, 3(R,S)-tert-Butoxycarbonyl-1-(3-fluorobenzyl)-8-methoxy-2,3,4,5-tetrahydro-1H-1-benzazepine-2-one]
[1]; [5]
  MIC: 12.5 µg/mL (≈ 31.3 µM)
[2]; [6]
  MIC: > 200 µg/mL

## CCOC(=O)NC(=O)N(C(=O)NC(=O)OCC)c1cc2c(cc1OC)NC(=O)C(C(=O)OC(C)(C)C)CC2 (racemic) [Example 204, 3(R,S)-tert-Butoxycarbonyl-7-di(ethoxycabonylaminocarbonyl)amino-8-methoxy-2,3,4,5-tetrahydro-1H-1-benzazepine-2-one]
[1]; Table V
  MIC (μg/mL) H. pylori: 60 µg/mL (≈ 112 µM)
[2]; Table V
  MIC (μg/mL) C. jejuni: >250, μg/mL

## CCOC(=O)C1CCc2ccc(OC)cc2N(CC)C1=O (racemic) [Example 4, 3(R,S)-Ethoxycarbonyl-1-ethyl-8-methoxy-2,3,4,5-tetrahydro-1H-1-benzazepine-2-one]
[1]; [5]
  MIC: 125 to 250 µg/mL (≈ 429 to 858 µM)
[2]; [6]
  MIC: 50 µg/mL (≈ 172 µM)

## CCN1C(=O)C(C(=O)OC(C)(C)C)CCc2ccc(O[Si](C)(C)C(C)(C)C)cc21 (racemic) [Example 179, 3(R,S)-tert-Butoxycarbonyl-8-tert-Butyldimethylsilyloxy-1-ethyl-2,3,4,5-tetrahydro-1H-1-benzazepine-2-one]
[1]; [3]
  MIC: 16 µg/mL (≈ 38.1 µM)
[2]; [4]
  MIC: > 200 µg/mL

## COc1cccc2c1CCCC(=O)N2 [Example 186, 6-Methoxy-2,3,4,5-tetrahydro-1 H-1-benzazepine-2-one]
[1]; [3]
  MIC: 64 µg/mL (≈ 335 µM)
[2]; [4]
  MIC: > 250 µg/mL

## CCN1C(=O)C(C(=O)OC(C)(C)C)CCc2cc(N3CCN(C(=O)OCc4ccccc4)CC3)c(OC)cc21 (racemic) [Example 26, 7-[(4-benzyloxycarbonyl)-piperazin-1-yl]-3(R,S)-tert-butoxycarbonyl-1-ethyl-8-methoxy-2,3,4,5-tetrahydro-1H-1-benzazepine-2-one]
[1]; [7]
  Antibacterial Activity (micrograms/ml) Helicobacter pylori: 12.5 micrograms/ml
[2]; [7]
  Antibacterial Activity (micrograms/ml) Campylobacter jejuni: 125 micrograms/ml

## O=C1CCCc2cc(O)ccc2N1 [Example 189, 7-Hydroxy-2,3,4,5-tetrahydro-H-1-benzazepine-2-one]
[1]; [3]
  MIC: 125 µg/mL (≈ 705 µM)
[2]; [4]
  MIC: > 250 µg/mL

## CCOc1ccc2c(c1)N(CC)C(=O)C(C(=O)OC(C)(C)C)CC2 (racemic) [Example 180, 8-Ethoxy-3(R,S)-tert-butoxycarbonyl-1-ethyl-2,3,4,5-tetrahydro-1H-1-benzazepine-2-one]
[1]; [3]
  MIC: 32 µg/mL (≈ 96 µM)
[2]; [4]
  MIC: > 200 µg/mL

## COc1cc2c(cc1[N+](=O)[O-])CCC(C(=O)OC(C)(C)C)C(=O)N2 (racemic) [Example 198, 3(R,S)-tert-Butoxycarbonyl-8-methoxy-7-nitro-2,3,4,5-tetrahydro-1H-1-benzazepine-2-one]
[1]; [3]
  MIC: 4 µg/mL (≈ 11.9 µM)
[2]; [4]
  MIC: 60 µg/mL (≈ 178 µM)

## CCN1C(=O)CCCc2cc(N3CCN(C(=O)OC(C)(C)C)CC3)c(OC)cc21 [Example 21, 7-[(4-tert-butoxycarbonylpiperazin)-1-yl]-1-ethyl-8-methoxy-2,3,4,5-tetrahydro-1H-1-benzazepine-2-one]
[1]; [7]
  Antibacterial Activity (micrograms/ml) Helicobacter pylori: 12.5-25 micrograms/ml
[2]; [7]
  Antibacterial Activity (micrograms/ml) Campylobacter jejuni: >200 micrograms/ml

## COc1ccc2c(c1)N(CCC1OCCO1)C(=O)C(C(=O)OC(C)(C)C)CC2 (racemic) [Example 223, 3(R,S)-tert-Butoxycarbonyl-8-methoxy-1-[2-(1,3-dioxolan-2-yl)ethyl]-2,3,4,5-tetrahydro-1H-1-benzazepine-2-one]
[1]; [3]
  MIC: 60 µg/mL (≈ 153 µM)
[2]; [4]
  MIC: > 250 µg/mL
